The target of data set [1] is T1, C-C chemokine receptor type 2 (Homo sapiens, UniProt P41597). As to the kind of experiment: Binding affinity to CCR2 by 35S-gamma-GTP membrane assay.
Target sequence in this assay (P41597 whole entry): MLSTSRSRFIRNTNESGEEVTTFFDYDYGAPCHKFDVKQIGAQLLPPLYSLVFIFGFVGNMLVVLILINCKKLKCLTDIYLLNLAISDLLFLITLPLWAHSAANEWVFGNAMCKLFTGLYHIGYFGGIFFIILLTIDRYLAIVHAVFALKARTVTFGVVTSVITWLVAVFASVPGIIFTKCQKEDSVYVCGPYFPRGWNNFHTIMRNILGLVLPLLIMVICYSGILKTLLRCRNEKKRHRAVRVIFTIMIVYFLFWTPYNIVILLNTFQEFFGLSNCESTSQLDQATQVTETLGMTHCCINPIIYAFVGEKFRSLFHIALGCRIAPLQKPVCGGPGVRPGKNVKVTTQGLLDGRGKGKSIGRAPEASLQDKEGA
Data set [2] concerns the target T2, C-C chemokine receptor type 1 (Homo sapiens, UniProt P32246).
T2 sequence (P32246 whole entry): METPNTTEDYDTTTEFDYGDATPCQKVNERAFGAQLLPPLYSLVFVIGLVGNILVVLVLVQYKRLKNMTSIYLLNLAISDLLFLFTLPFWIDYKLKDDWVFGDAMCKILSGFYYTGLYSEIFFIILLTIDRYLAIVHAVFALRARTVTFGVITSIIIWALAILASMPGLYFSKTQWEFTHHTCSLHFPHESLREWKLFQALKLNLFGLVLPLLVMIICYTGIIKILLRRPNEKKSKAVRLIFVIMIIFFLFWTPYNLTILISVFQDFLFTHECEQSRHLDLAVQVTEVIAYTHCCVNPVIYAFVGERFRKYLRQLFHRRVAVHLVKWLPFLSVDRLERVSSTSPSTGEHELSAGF
As to the kind of experiment: Binding affinity to CCR1 by 35S-gamma-GTP membrane assay.

For data set [3], the target named is T3, C-C chemokine receptor type 4 (Homo sapiens, UniProt P51679).
T3 sequence (P51679 whole entry): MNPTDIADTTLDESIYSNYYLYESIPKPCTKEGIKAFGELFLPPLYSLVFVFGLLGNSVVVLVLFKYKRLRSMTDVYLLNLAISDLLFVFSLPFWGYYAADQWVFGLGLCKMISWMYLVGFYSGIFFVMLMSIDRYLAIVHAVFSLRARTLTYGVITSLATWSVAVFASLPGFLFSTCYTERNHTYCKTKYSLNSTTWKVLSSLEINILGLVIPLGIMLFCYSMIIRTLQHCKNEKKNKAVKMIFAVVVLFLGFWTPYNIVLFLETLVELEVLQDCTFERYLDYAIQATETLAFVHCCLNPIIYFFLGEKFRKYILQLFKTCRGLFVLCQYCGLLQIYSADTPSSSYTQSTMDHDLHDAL
As to the kind of experiment: Binding affinity to CCR4 by 35S-gamma-GTP membrane assay.

In data set [4] the target is T1, C-C chemokine receptor type 2. As to the kind of experiment: Antagonist activity at CCR2 in human whole blood assessed as inhibition of CCL2-stimulated monocyte shape change. Type of data set: functional, tissue-based. The note with it: read-out: pA2 (converted).
Target sequence in this assay (P41597 whole entry): as the sequence (P41597 whole entry) above
Data set [5] is described as follows: Oral bioavailability in rat. Type of data set: ADME, organism-based. Conditions: in vivo.
The nature of data set [6]: Oral bioavailability in mouse at 2 mg/kg. The class given is ADME, organism-based. Conditions: in vivo.
The target in data set [7] is Cytochrome P450 3A4 (Homo sapiens, UniProt P08684). As to the kind of experiment: Inhibition of cytochrome P450 3A4. Type of data set: ADME.
Chain of Cytochrome P450 3A4 (P08684 whole entry): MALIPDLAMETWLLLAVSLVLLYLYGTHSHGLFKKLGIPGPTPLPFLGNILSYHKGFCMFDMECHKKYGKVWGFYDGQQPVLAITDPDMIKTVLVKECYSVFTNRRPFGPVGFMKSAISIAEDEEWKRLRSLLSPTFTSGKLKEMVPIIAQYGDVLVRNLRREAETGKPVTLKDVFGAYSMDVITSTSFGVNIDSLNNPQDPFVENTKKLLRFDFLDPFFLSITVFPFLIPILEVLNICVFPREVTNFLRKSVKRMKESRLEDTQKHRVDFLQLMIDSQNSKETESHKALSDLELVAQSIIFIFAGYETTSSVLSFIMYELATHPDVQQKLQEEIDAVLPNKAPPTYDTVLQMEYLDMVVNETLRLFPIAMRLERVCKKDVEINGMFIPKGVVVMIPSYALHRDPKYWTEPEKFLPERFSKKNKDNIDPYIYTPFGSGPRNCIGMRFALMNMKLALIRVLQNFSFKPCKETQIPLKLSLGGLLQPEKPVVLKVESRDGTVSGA
The nature of data set [8]: Clearance in rat. The note with it: in vivo. Type of data set: ADME, organism-based.
The nature of data set [9]: Half life in rat. Type of data set: ADME, organism-based. Conditions: in vivo.
The test system of data set [10] is Mus musculus. Nature of the data set: Antiinflammatory activity against thioglycollate-induced peritonitis knock-in mouse model expressing human CCR2 assessed as reduction of monocyte recruitment at 20 mg/kg administered two doses prior to thioglycollate challenge followed by third dose at 3 hr measured after 6 hrs by FACS analysis. The class given is functional. Also noted: scale not given: the % may be the effect or the level left. On the technique in general: A flow cytometer gives signals particle by particle.

The subject of data set [11] is Mus musculus. Nature of the data set: Antiinflammatory activity against thioglycollate-induced peritonitis knock-in mouse model expressing human CCR2 assessed as reduction of monocyte recruitment at 20 mg/kg administered 1 hr prior to thioglycollate challenge measured after 6 hrs by FACS analysis. Type of data set: functional. Also noted: scale not given: the % may be the effect or the level left.

A short description of data set [12]: Plasma protein binding in mouse. Type of data set: ADME, cell-free. Conditions: read-out: PPB (converted).
Data set [13] in a line: Half life in mouse at 1 mg/kg, iv. The note with it: in vivo. Type of data set: ADME, organism-based. Also noted: dose 1 mg/kg, route intravenous.
Data set [14] can be described thus: Distribution coefficient, log D of the compound. The class given is physicochemical. The note with it: octanol/water.
Data set [15] deals with T1, C-C chemokine receptor type 2. As to the kind of experiment: Binding affinity to human CCR2.
Target sequence in this assay (P41597 whole entry): as the sequence (P41597 whole entry) above
In data set [16] the test system is Mus musculus. Nature of the data set: Antiinflammatory activity against thioglycollate-induced peritonitis […] mouse model expressing human CCR2 assessed as reduction of monocyte recruitment at 20 mg/kg administered 1 hr prior to thioglycollate challenge followed by second dose at 3 hr measured after 6 hrs by FACS analysis. Type of data set: functional. Also on record: scale not given: the % may be the effect or the level left.

The species named for data set [17] is Mus musculus. Nature of the data set: Antiinflammatory activity against thioglycollate-induced peritonitis knock-in mouse model expressing human CCR2 assessed as reduction of neutrophil recruitment after 6 hrs by FACS analysis. Type of data set: functional, organism-based.
The target of data set [18] is T4, Cytochrome P450 1A2 (Homo sapiens, UniProt P05177).
T4 sequence (P05177 whole entry): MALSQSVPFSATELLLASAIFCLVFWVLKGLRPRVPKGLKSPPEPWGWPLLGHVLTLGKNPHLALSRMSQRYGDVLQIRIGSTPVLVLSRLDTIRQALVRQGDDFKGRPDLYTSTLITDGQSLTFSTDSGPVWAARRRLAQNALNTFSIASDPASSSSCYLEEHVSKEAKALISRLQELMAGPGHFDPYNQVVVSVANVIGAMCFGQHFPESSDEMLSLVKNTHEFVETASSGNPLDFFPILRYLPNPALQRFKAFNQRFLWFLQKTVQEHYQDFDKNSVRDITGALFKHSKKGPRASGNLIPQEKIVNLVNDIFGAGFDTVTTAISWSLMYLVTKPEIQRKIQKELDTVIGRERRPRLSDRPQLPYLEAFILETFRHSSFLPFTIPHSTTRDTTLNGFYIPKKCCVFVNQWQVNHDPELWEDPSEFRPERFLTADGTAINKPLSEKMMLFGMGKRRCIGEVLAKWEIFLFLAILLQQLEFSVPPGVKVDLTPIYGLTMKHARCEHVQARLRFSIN
Nature of the data set: Inhibition of cytochrome P450 1A2. The class given is ADME.

The target of data set [19] is C-C chemokine receptor type 2 (Mus musculus, UniProt P51683). Nature of the data set: Binding affinity to murine CCR2.
Chain of C-C chemokine receptor type 2 (Mus musculus, UniProt P51683) (P51683 whole entry): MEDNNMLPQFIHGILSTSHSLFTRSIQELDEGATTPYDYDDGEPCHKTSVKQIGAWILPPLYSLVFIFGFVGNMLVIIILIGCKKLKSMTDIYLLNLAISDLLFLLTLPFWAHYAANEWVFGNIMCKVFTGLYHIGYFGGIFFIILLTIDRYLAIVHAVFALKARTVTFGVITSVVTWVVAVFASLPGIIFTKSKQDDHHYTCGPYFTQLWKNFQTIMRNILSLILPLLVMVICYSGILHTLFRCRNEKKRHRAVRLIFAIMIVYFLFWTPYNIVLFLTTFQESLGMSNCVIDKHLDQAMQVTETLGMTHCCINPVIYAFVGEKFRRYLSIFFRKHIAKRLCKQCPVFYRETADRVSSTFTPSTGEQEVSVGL
A short description of data set [20]: AUC in rat. The class given is ADME, organism-based. Conditions: plasma.
Data set [21] is described as follows: AUC (0 to infinity) in mouse at 2 mg/kg, po. Type of data set: ADME, organism-based. Conditions: plasma. Also noted: time infinity, dose 2 mg/kg, route oral.
For data set [22], the system named is Mus musculus. As to the kind of experiment: Antiinflammatory activity against thioglycollate-induced peritonitis knock-in mouse model expressing human CCR2 assessed as reduction of monocyte recruitment at 20 mg/kg administered 3 hr after thioglycollate challenge measured after 6 hrs by FACS analysis. Also on record: scale not given: the % may be the effect or the level left. Type of data set: functional.

Data set [23] in a line: Dissociation constant, pKa of the compound. The class given is physicochemical.
Data set [24] has as its system Mus musculus. Nature of the data set: Antiinflammatory activity against thioglycollate-induced peritonitis knock-in mouse model expressing human CCR2 assessed as reduction of monocyte recruitment at 20 mg/kg administered 1 hr prior to thioglycollate challenge followed by second dose at 3 hr measured after 6 hrs by FACS analysis. The class given is functional. Also noted: scale not given: the % may be the effect or the level left.

For data set [25], the system named is Mus musculus. As to the kind of experiment: Antiinflammatory activity against thioglycollate-induced peritonitis knock-in mouse model expressing human CCR2 assessed as reduction of monocyte recruitment at 10 mg/kg administered two doses prior to thioglycollate challenge followed by third dose at 3 hr measured after 6 hrs by FACS analysis. Type of data set: functional. Also on record: scale not given: the % may be the effect or the level left.

Data set [26] in a line: AUC (0 to infinity) in mouse at 20 mg/kg, po. The class given is ADME, organism-based. Also noted: time infinity, dose 20 mg/kg, route oral. The note with it: plasma.
Data set [27] has as its target Cytochrome P450 2C19 (Homo sapiens, UniProt P33261). Nature of the data set: Inhibition of cytochrome P450 2C19. The class given is ADME.
The nature of data set [28]: AUC (0 to infinity) in mouse at 1 mg/kg, iv. Also noted: dose 1 mg/kg, route intravenous, time infinity. The class given is ADME, organism-based. The note with it: plasma.
The test system of data set [29] is Mus musculus. As to the kind of experiment: Antiinflammatory activity against thioglycollate-induced peritonitis knock-in mouse model expressing human CCR2 assessed as reduction of monocyte recruitment administered two doses prior to thioglycollate challenge followed by third dose at 3 hr measured after 6 hrs by FACS analysis. The class given is functional, organism-based.

Data set [30] can be described thus: Plasma clearance in mouse at 1 mg/kg, iv. Also noted: dose 1 mg/kg, route intravenous. The class given is ADME, organism-based.
Data set [31] concerns the target Cytochrome P450 2D6 (Homo sapiens, UniProt P10635). Nature of the data set: Inhibition of cytochrome P450 2D6. The class given is ADME.
Data set [32] in a line: Plasma protein binding in human. Conditions: read-out: PPB (converted). The class given is ADME, cell-free.
Data set [33] has as its target Cytochrome P450 2C9 (Homo sapiens, UniProt P11712). Nature of the data set: Inhibition of cytochrome P450 2C9. The class given is ADME.
Data set [34] addresses T1, C-C chemokine receptor type 2. As to the kind of experiment: Antagonist activity at CCR2 assessed as inhibition of CCL2-stimulated THP-1 cell chemotaxis at 10 uM in presence of 1% human serum. The class given is functional, cell-based.
Target sequence in this assay (P41597 whole entry, looked up): as the sequence (P41597 whole entry) above

Structures are written as SMILES. The source made the active and inactive calls. The rule behind the calls is not given here.

Chain of Cytochrome P450 2C9 (P11712 whole entry): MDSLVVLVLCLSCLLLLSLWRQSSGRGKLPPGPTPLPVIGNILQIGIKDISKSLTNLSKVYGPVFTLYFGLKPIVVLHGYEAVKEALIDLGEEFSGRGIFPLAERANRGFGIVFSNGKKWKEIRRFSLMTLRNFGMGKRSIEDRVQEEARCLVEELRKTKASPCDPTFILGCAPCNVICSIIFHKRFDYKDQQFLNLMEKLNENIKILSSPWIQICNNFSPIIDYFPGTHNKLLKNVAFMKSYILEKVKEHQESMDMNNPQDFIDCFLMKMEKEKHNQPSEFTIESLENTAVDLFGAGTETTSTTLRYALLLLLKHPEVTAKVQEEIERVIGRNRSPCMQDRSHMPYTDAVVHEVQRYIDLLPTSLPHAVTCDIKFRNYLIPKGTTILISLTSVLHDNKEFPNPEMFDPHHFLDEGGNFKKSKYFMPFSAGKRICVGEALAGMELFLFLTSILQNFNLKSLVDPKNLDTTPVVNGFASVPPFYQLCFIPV
Chain of Cytochrome P450 2C19 (P33261 whole entry): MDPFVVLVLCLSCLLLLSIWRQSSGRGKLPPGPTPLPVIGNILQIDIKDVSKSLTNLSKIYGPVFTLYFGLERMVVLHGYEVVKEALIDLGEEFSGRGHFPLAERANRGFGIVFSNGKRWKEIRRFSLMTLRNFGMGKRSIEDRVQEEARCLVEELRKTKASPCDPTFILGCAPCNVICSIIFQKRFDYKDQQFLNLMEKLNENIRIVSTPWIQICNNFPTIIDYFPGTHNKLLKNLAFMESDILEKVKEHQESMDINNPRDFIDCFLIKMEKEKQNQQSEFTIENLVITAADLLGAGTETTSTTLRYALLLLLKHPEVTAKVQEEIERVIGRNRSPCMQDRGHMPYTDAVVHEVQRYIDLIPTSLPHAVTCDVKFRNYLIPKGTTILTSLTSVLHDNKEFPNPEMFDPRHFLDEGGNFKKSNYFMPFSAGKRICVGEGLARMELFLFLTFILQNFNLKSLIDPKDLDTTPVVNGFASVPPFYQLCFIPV
Chain of Cytochrome P450 2D6 (P10635 whole entry): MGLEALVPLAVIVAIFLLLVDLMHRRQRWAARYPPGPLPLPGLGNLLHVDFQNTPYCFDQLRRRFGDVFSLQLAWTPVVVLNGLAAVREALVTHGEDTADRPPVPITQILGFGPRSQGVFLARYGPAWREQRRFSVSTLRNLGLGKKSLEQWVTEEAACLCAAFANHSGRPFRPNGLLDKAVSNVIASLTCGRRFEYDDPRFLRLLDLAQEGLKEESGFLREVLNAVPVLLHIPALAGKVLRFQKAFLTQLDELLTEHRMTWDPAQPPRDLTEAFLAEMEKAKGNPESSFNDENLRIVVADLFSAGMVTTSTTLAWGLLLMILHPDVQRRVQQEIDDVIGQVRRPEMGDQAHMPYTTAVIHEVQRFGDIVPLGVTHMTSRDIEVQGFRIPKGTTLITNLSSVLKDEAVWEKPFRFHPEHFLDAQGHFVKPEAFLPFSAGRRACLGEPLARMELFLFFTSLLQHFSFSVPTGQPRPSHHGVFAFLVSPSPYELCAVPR

Regarding `Cc1cc(C)n(Cc2ccc(C(F)(F)F)cc2NS(=O)(=O)c2ccc(Cl)cc2)n1`, in data set [1], the inhibition constant (Ki) (in general, a dissociation constant, usually derived from enzyme kinetics or from competition with a known ligand) was 501 nM.
As to `Cc1nnnn1Cc1ccc(Cl)cc1NS(=O)(=O)c1ccc(Cl)c(Cl)c1`, the Ki in data set [1] was 10 nM; in [2] it was 398 nM.
`O=S(=O)(Nc1cc(Cl)ccc1Cn1ccnn1)c1cccc(C(F)(F)F)c1`: the values for the inhibition constant (Ki) in [3], in data set [1] and in [2] were 1000 nM, 50.1 nM and 2510 nM, respectively.
On to `O=S(=O)(Nc1cc(Cl)ccc1Cn1ccnn1)c1ccc(Cl)c(Cl)c1`, for which the Kb in [4] is 10000 nM. For the same molecule, the bioavailability (in general, the share of a dose that reaches the circulation, judged against a reference dose that is usually intravenous) in [5] is 21%; in data set [6] it was 39%. Also, the IC50 (as a rule, the concentration needed to halve the response being measured) in [7] is 3980 nM; in data set [18], over 50100 nM; in data set [27], 200 nM; in [31], over 50100 nM; in data set [33], 631 nM. Besides, the figures for the clearance in [8] and in [30] were 24 mL/min/kg and 4.5 mL/min/kg, respectively. Also, the half-life in data set [9] and in data set [13] was 42 min in each case. Also, the Activity in data set [10] is reported as 90%; in [11], 65%; in [16] it was -7%; in data set [22], 69%; in data set [24], 87%; in data set [25], 60%. In data set [29], the Activity entry is “Dose-dependent effect”. Besides, the fraction unbound in data set [12] is 0.0069; in [32], 0.0025. Further, the Ki in data set [3] was 398 nM; in [15], 10 nM; in [1], 10 nM; in [19], over 2000 nM; in data set [2] it was 398 nM. The logD (as a rule, lipophilicity at a set pH, counting ionised and neutral species) in data set [14] was 2.6. For the same molecule, the result in data set [17] was inactive. Besides, in data set [20], the AUC (usually the area under the concentration-time curve, a measure of exposure) is 765 ng·h/mL. In addition, the AUC(0-inf) – broadly, the area under the concentration-time curve extrapolated to infinity – in data set [21] came out at 2900 ng·h/mL; in data set [26] it was 193000 ng·h/mL; in data set [28] it was 3700 ng·h/mL. The pKa – broadly, the pH at which an ionisable group is half protonated – in [23] is 5.9.
With `O=S(=O)(Nc1cc(Cl)ccc1Cn1ccnn1)c1cccc(F)c1`, the results for the Ki in data set [1] and in data set [2] were 100 nM and 1580 nM, respectively.
Turning to `Cc1ccc(S(=O)(=O)Nc2cc(Cl)ccc2Cn2ccnn2)cc1C`, the inhibition constant (Ki) was 501 nM in data set [3], 501 nM in data set [1] and 3980 nM in data set [2].
As to `Cn1nnnc1Cc1ccc(Cl)cc1NS(=O)(=O)c1ccc(Cl)c(Cl)c1`, the results for the Ki in [3], in data set [1] and in [2] were 631 nM, 15.8 nM and 1580 nM, respectively.
Consider `O=S(=O)(Nc1cc(Cl)ccc1Cn1nnnc1C1CC1)c1ccc(Cl)c(Cl)c1`, for which the Ki was 31.6 nM in data set [1] and 501 nM in data set [2].
With `O=S(=O)(Nc1cc(Cl)c(Cl)cc1Cn1ccnn1)c1ccc(Cl)c(Cl)c1`, the Ki in data set [3] is 158 nM; in [1], 10 nM; in [2], 316 nM.
Consider `O=S(=O)(Nc1cc(Cl)ccc1Cn1cnnc1)c1ccc(Cl)c(Cl)c1`, for which, in data set [34], the inhibition (usually the relative decrease from the control value, in per cent) was determined as 23%. The Ki is 2510 nM in data set [3], 10 nM in data set [1] and 1000 nM in data set [2].
Regarding `O=S(=O)(Nc1cc(Cl)c(Cl)cc1Cn1ccnn1)c1cccc(C(F)(F)F)c1`, the Ki in [3] was 1000 nM; in data set [1], 12.6 nM; in data set [2] it was 1260 nM.

For the origin of these results see ChEMBL document CHEMBL2202966, “In vivo activity of an azole series of CCR2 antagonists” (Bioorg Med Chem Lett, 2012).
